Results as given in US20240376126A1, “PRMT5 INHIBITOR AND THE USE THEREOF” (CYTOSINLAB THERAPEUTICS CO., LTD., priority 2022, published 2024).
Like-named read-outs stand apart in the source and are kept apart here.

Experiments:
[1] = system: HCT116-MTAP-KO (MTAP null) cells; assay: Proliferation inhibition of HCT116 MTAP-KO cells in vitro (CellTiter Glo, 6 days); format: cell-based; details: read-out: Cell proliferation inhibition rate HCT116-MTAP null IC50 (nm)
Source text: (§1) Biological Test Example 2 Proliferation Inhibition of HCT116 and HCT116 MTAP-KO Cells In Vitro
(§2) HCT116 cell line was purchased from the Chinese Academy of Sciences Cell Bank, and the MTAP gene was knocked out by CRISPR/Cas9 technology to obtain HCT116-MTAP-KO cell line.
(§3) McCoy's 5A medium (Gibco, catalog No. 16600082), fetal bovine serum (Gibco, catalog No. 10099141C), penicillin-streptomycin double antibody (Gibco, catalog No. 15140122), pancreatic enzyme (Gibco, catalog No. 25200056), CellTiter Glo assay kit (Promega, catalog No. G7572), 384-well transparent flat-bottomed black walled cell culture plate (Corning, catalog No. 3764), ultra micro sampler (Tecan, catalog No. D300e), Multimode reader (Biotek, catalog No. SynergyHTX)
(§4) • 1. Cell culture: HCT116 and HCT116-MTAP-KO cells were cultured in McCoy'5A medium+10% fetal bovine serum+1% penicillin-streptomycin double antibody; to ensure that they were always in the logarithmic growth phase and the cell viability greater than 95%. • 2. Compound concentration gradient preparation: The compound to be tested was added to a 384-well plate using an ultra micro sampler, starting from 30 μM (HCT116 cells) or 3 μM (HCT116-MTAP-KO cells), and diluted with DMSO at 3 times for a total of 9 concentrations and set up three duplicate wells. • 3. Treatment of cells with compounds: Trypsin-digested HCT116 or HCT116-MTAP-KO cell suspension was added to the 384-well plates spotted with the compounds to be tested at 40 μL per well, i.e., 100 cells per well, and the final concentration of DMSO was 0.4%. The cell culture plate was incubated at 37° C. in a 5% CO2 incubator for 6 days. • 4. Detection: 20 μL of CellTiter Glo reagent was added to each well of the cell culture plate and incubated at room temperature for 30 minutes. A multimode reader was used to detect the luminescence signal at […]. • 5. Data analysis:
(§5) The data was fitted with GraphPad Prism 8.0 software using a four parameter inhibitor-reaction model to obtain the […] (half inhibitory concentration) of the test compounds.
(§6) The first column represents cell proliferation inhibition rate HCT116 MTAP WT IC50 (nm), and the second column represents cell proliferation inhibition rate HCT116-MTAP null IC50 (nm): […]

HCT116 MTAP WT cells = assay: Proliferation inhibition of HCT116 cells in vitro (CellTiter Glo, 6 days); format: cell-based; details: read-out: Cell proliferation inhibition rate HCT116 MTAP WT IC50 (nm)
Source text: as §1, §2, §3, §4, §5, §6

Row | IC50 ([1]; HCT116-MTAP null, 144 h) | IC50 (HCT116 MTAP WT cells; Homo sapiens, HCT-116, 144 h) | IC50 [1] | IC50 (HCT116 MTAP WT cells) | SMILES
1 | < 100 nM | 1000 to 10000 nM |  |  | CC1OCc2c1c(N)nc1ccc(C(=O)N(Cc3cn4cc(C(F)F)ccc4n3)c3cnn(C)c3)cc21 (stereo not shown) [Example 78]
2 | < 100 nM | 1000 to 10000 nM |  |  | Cn1cc(N(Cc2cn3cc(C(F)(F)F)ccc3n2)C(=O)c2cc3c4c(c(N)nc3cc2F)COC4)cn1 [Example 80]
3 | < 100 nM | 1000 to 10000 nM |  |  | Cn1cc(N(Cc2cn3ccccc3n2)C(=O)c2cc3c4c(c(N)nc3cc2F)COC4)cn1 [Example 82]
4 | < 100 nM | 100 to 1000 nM |  |  | Cn1cc(N(Cc2nc3ccccn3c2F)C(=O)c2cc3c4c(c(N)nc3cc2F)COC4)cn1 [Example 83]
5 | < 100 nM | 1000 to 10000 nM |  |  | Cn1cc(N(Cc2nc3ccc(C(F)(F)F)cn3c2F)C(=O)c2cc3c4c(c(N)nc3cc2F)COC4)cn1 [Example 84]
6 | < 100 nM | 1000 to 10000 nM |  |  | CCN(Cc1cn2cc(C(F)(F)F)ccc2n1)C(=O)c1cc2c3c(c(N)nc2cc1F)COC3 [Example 85]
7 | < 100 nM | 1000 to 10000 nM |  |  | CCN(Cc1cn2ccccc2n1)C(=O)c1cc2c3c(c(N)nc2cc1F)COC3 [Example 86]
8 | < 100 nM | 1000 to 10000 nM |  |  | Cc1ccc2nc(CN(C(=O)c3cc4c5c(c(N)nc4cc3F)COC5)c3cnn(C)c3)cn2c1 [Example 87]
9 | < 100 nM | 1000 to 10000 nM |  |  | Cn1ncc(N(Cc2cn3cc(C(F)(F)F)ccc3n2)C(=O)c2cc3c4c(c(N)nc3cc2F)COC4)n1 [Example 88]
10 | < 100 nM | 1000 to 10000 nM |  |  | Cc1nn(C)cc1N(Cc1cn2cc(C(F)(F)F)ccc2n1)C(=O)c1ccc2nc(N)c3c(c2c1)COC3 [Example 89]
11 | < 100 nM | 100 to 1000 nM |  |  | Cc1nn(C)cc1N(Cc1cn2cc(C(F)(F)F)ccc2n1)C(=O)c1ccc2nc(N)c3c(c2c1)CO[C@H]3C [Example 90]
12 | < 100 nM | 1000 to 10000 nM |  |  | Cn1cc(N(Cc2nc3ccc(C(F)(F)F)cn3c2F)C(=O)c2ccc3nc(N)c4c(c3c2)COC4)cn1 [Example 91]
13 | < 100 nM | 1000 to 10000 nM |  |  | Cn1cc(N(Cc2nc3ccccn3c2F)C(=O)c2ccc3nc(N)c4c(c3c2)COC4)cn1 [Example 92]
14 | < 100 nM | 1000 to 10000 nM |  |  | Cc1nn(C)cc1N(Cc1nc2ccc(C(F)(F)F)cn2c1F)C(=O)c1ccc2nc(N)c3c(c2c1)COC3 [Example 93]
15 | 100 to 1000 nM | 1000 to 10000 nM |  |  | Nc1nc2cc(F)c(C(=O)N(Cc3cn4cc(C(F)(F)F)ccc4n3)C3CCOC3)cc2c2c1COC2 (stereo not shown) [Example 94]
16 | < 100 nM | 1000 to 10000 nM |  |  | CCn1cc(N(Cc2cn3cc(C(F)(F)F)ccc3n2)C(=O)c2ccc3nc(N)c4c(c3c2)COC4)c(C)n1 [Example 95]
17 | < 100 nM | 1000 to 10000 nM |  |  | Cc1nn(C)cc1N(Cc1nc2ccccn2c1F)C(=O)c1ccc2nc(N)c3c(c2c1)COC3 [Example 96]
18 | < 100 nM | 1000 to 10000 nM |  |  | CCc1nn(C)cc1N(Cc1cn2cc(C(F)(F)F)ccc2n1)C(=O)c1ccc2nc(N)c3c(c2c1)COC3 [Example 97]
19 | < 100 nM | 1000 to 10000 nM |  |  | Cc1cc(N(Cc2cn3cc(C(F)(F)F)ccc3n2)C(=O)c2ccc3nc(N)c4c(c3c2)COC4)n(C)n1 [Example 98]
20 | < 100 nM | 1000 to 10000 nM |  |  | Cc1ncccc1N(Cc1cn2cc(C(F)(F)F)ccc2n1)C(=O)c1ccc2nc(N)c3c(c2c1)COC3 [Example 99]
21 | < 100 nM | 1000 to 10000 nM |  |  | Cc1ncccc1N(Cc1cn2cc(C(F)(F)F)ccc2n1)C(=O)c1ccc2nc(N)c3c(c2c1)COC3C (stereo not shown) [Example 100]
22 | < 100 nM | 1000 to 10000 nM |  |  | CCn1cc(N(Cc2nc3ccc(C(F)(F)F)cn3c2F)C(=O)c2ccc3nc(N)c4c(c3c2)COC4)c(C)n1 [Example 101]
23 | 100 to 1000 nM | 1000 to 10000 nM |  |  | Cc1cc2cc(C(=O)N(Cc3cn4cc(C(F)(F)F)ccc4n3)c3cn(C)nc3C)ccc2nc1N [Example 103]
24 |  |  | < 100 nM | 100 to 1000 nM | Cc1nn(C)cc1N(Cc1cn2cc(C(F)(F)F)ccc2n1)C(=O)c1cc2c(cc1F)nc(N)c1cnn(C)c12 [Example 104]
25 | < 100 nM | 1000 to 10000 nM |  |  | Cc1nn(C)cc1N(Cc1cn2cc(C(F)(F)F)ccc2n1)C(=O)c1ccc2nc(N)c3c(cnn3C)c2c1 [Example 105]

Row | IC50 ([1]; HCT116-MTAP null, 144 h) | IC50 (HCT116 MTAP WT cells; Homo sapiens, HCT-116, 144 h) | IC50 [1] | IC50 (HCT116 MTAP WT cells) | SMILES
26 | < 100 nM | 1000 to 10000 nM |  |  | Cn1nccc1N(Cc1cn2cc(C(F)(F)F)ccc2n1)C(=O)c1ccc2nc(N)c3c(c2c1)COC3 [Example 107]
27 | < 100 nM | 1000 to 10000 nM |  |  | Cc1cc(NC(=O)C(=O)N(Cc2cn3cc(C(F)(F)F)ccc3n2)c2cn(C)nc2C)cnc1N [Example 108]
28 | < 100 nM | 1000 to 10000 nM |  |  | Cc1nn(C)cc1N(Cc1cn2cc(C(F)(F)F)ccc2n1)C(=O)c1ccc2nc(N)c3c(c2c1)OCC3 [Example 109]
29 |  |  | < 100 nM | < 100 nM | Cn1nccc1N(Cc1cn2cc(C(F)(F)F)ccc2n1)C(=O)c1cc2c(cc1F)nc(N)c1cnn(C)c12 [Example 111]
30 | < 100 nM | 100 to 1000 nM |  |  | Cn1nccc1N(Cc1cn2cc(C(F)(F)F)ccc2n1)C(=O)c1ccc2nc(N)c3c(c2c1)OCC3 [Example 112]
31 | 100 to 1000 nM | 1000 to 10000 nM |  |  | Cn1cc(N(Cc2cn3cc(C(F)(F)F)ccc3n2)C(=O)c2ccc3nc(N)c4c(c3c2)OCC4)cn1 [Example 113]
32 | < 100 nM | 100 to 1000 nM |  |  | Cn1ncc(F)c1N(Cc1cn2cc(C(F)(F)F)ccc2n1)C(=O)c1ccc2nc(N)c3cnn(C)c3c2c1 [Example 115]
33 | < 100 nM | 1000 to 10000 nM |  |  | CC(c1ncccn1)N(Cc1cc2ccccn2n1)C(=O)c1ccc2nc(N)c3c(c2c1)CCC3 (stereo not shown) [Example 116]
34 | 100 to 1000 nM | 1000 to 10000 nM |  |  | CCN(C(=O)c1ccc2nc(N)c3c(cnn3C)c2c1)C(C)c1cc2ccccn2n1 (stereo not shown) [Example 117]
35 | 100 to 1000 nM | 1000 to 10000 nM |  |  | CCN(Cc1cc2ccccn2n1)C(=O)c1ccc2nc(N)c3c(cnn3C)c2c1 [Example 118]
36 | < 100 nM | 1000 to 10000 nM |  |  | CCN(C(=O)c1ccc2nc(N)c3c(c2c1)COC3)C(C)c1cc2ccccn2n1 (stereo not shown) [Example 119, 4-Amino-N-ethyl-N-(1-(pyrazolo[1,5-a]pyridin-2-yl)ethyl)-1,3-dihydrofurano[3,4-c]quinolin-8-carboxamide]
37 | < 100 nM | 1000 to 10000 nM |  |  | Cc1cc2cc(C(=O)N(Cc3cc4ccccn4n3)C(C)c3ncccn3)ccc2nc1N (stereo not shown) [Example 120]
38 | 100 to 1000 nM | 1000 to 10000 nM |  |  | CCN(Cc1cc2ccccn2n1)C(=O)c1ccc2nc(N)c3c(c2c1)COC3C (stereo not shown) [Example 121]
39 | < 100 nM | 1000 to 10000 nM |  |  | Cc1cc2cc(C(=O)N(Cc3cc4ccccn4n3)C(C)c3cccc(F)n3)ccc2nc1N (stereo not shown) [Example 122]
40 | < 100 nM | 100 to 1000 nM |  |  | C[C@H]1COC[C@@H](c2cc3ccccn3n2)N1C(=O)c1cc2c(cc1F)nc(N)c1cnn(C)c12 [Example 123]
41 | < 100 nM | 1000 to 10000 nM |  |  | C[C@H]1COC[C@@H](c2cc3ccccn3n2)N1C(=O)c1cc2c3c(c(N)nc2cc1F)COC3 [Example 124]
42 | < 100 nM | 1000 to 10000 nM |  |  | Cc1nn(C)cc1N(Cc1cc2ccc(C(F)(F)F)cn2n1)C(=O)c1ccc2nc(N)c3c(c2c1)COC3 [Example 126]
43 | 100 to 1000 nM | 100 to 1000 nM |  |  | CC(c1ncccn1)N(Cc1nc2ccccc2[nH]1)C(=O)c1ccc2nc(N)c3c(c2c1)CCC3 (stereo not shown) [Example 128]
44 | < 100 nM | 1000 to 10000 nM |  |  | COCC(C1CC1)N(Cc1nc2ccccc2[nH]1)C(=O)c1ccc2nc(N)c3c(c2c1)CCC3 (stereo not shown) [Example 129]
45 | < 100 nM | 1000 to 10000 nM |  |  | CC(C)N(Cc1nc2ccccc2[nH]1)C(=O)c1ccc2cc(N)c3c(c2c1)CCC3 [Example 130]
46 | 100 to 1000 nM | 1000 to 10000 nM |  |  | CC(C)CN(Cc1nc2ccc(C(F)(F)F)cc2[nH]1)C(=O)c1ccc2nc(N)c3c(c2c1)COC3 [Example 131]
47 | < 100 nM | 100 to 1000 nM |  |  | CC(C)CN(Cc1nc2cc(S(F)(F)(F)(F)F)ccc2[nH]1)C(=O)c1cc2c(cc1F)nc(N)c1cnn(C)c12 [Example 133]
48 | < 100 nM | 1000 to 10000 nM |  |  | CCN(Cc1nc2ccc(C(F)(F)F)cc2[nH]1)C(=O)c1ccc2nc(N)c3c(c2c1)COC3C (stereo not shown) [Example 134]
49 | 100 to 1000 nM | 1000 to 10000 nM |  |  | CCN(Cc1nc2ccccc2[nH]1)C(=O)c1ccc2nc(N)c3c(c2c1)COC3C (stereo not shown) [Example 135]
50 | 100 to 1000 nM | 1000 to 10000 nM |  |  | CC(C)CN(Cc1nc2ccccc2[nH]1)C(=O)c1ccc2nc(N)c3c(c2c1)COC3C (stereo not shown) [Example 136]
